In patent publication US20050009894A1 (Aventis Pharma S.A., priority 2001, published 2005):

molecular target: T1, human KDR enzyme (Homo sapiens, UniProt P35968); experiment: Phosphorylation of the substrate PLCγ by the enzyme KDR in vitro (flashplate technique); format: biochemical; conditions: Activity, Table VII, degrees of activity by IC50 range
T1 construct: The cytoplasmic domain of human KDR enzyme is cloned in the form of a GST fusion; GST; made in house; host or cells: SF21 insect cells (baculovirus, pFastBac)
T1 sequence (P35968 786-1356 limits assumed): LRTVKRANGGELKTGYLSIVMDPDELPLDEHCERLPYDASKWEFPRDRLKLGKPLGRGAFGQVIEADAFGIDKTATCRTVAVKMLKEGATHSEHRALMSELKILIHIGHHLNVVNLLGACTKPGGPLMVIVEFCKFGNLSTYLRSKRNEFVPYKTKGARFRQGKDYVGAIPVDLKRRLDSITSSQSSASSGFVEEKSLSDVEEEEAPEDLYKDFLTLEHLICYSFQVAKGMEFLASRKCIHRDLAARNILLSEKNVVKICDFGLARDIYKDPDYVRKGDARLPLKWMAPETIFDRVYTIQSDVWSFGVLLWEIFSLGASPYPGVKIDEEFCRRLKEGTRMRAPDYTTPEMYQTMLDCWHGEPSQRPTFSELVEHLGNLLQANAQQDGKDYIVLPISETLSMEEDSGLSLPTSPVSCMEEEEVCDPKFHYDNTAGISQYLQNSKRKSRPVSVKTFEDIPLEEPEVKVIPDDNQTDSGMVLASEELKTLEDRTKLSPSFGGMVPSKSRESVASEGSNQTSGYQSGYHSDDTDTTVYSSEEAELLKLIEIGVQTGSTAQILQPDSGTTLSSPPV
Method in brief: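 GST-fused human KDR cytoplasmic domain (Sf21 baculovirus, ~60% pure; 100 ng/well) phosphorylating 2 μg GST-PLCγ SH2-SH3 fragment in MOPS pH 7.2 with MgCl2/MnCl2, 1 h at 37° C. Started with γ33P-ATP plus cold ATP (2 μM in start solution); flashplate radioactivity. % inhibition vs no-compound control; IC50 from dose-response curves.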

SMILES | IC50 [µM]
O=C(Cc1ccccc1)Oc1cc(-c2nc3ccccc3[nH]2)[nH]n1 [Example 219, Phenyl-acetic acid 5-(1H-benzoimidazol-2-yl)-1H-pyrazol-3-yl ester] | > 3

same assay, conditions: Table VII, degrees of activity by IC50 range; read-out: Activity

SMILES | IC50 [µM]
O=S(=O)(Oc1cc(-c2nc3ccccc3[nH]2)[nH]n1)c1cccc(Cl)c1Cl [Example 194, 2,3-Dichloro-benzenesulfonic acid 5-(1H-benzoimidazol-2-yl)-1H-pyrazol-3-yl ester] | > 3
c1ccc2[nH]c(-c3cc(OCCN4CCOCC4)n[nH]3)nc2c1 [Example 195, 2-[5-(2-Morpholin-4-yl-ethoxy)-2H-pyrazol-3-yl]-1H-benzoimidazole] | > 3
c1ccc2[nH]c(-c3cc(OCCN4CCCCC4)n[nH]3)nc2c1 [Example 196, 2-[5-(2-Piperidin-1-yl-ethoxy)-2H-pyrazol-3-yl]-1H-benzoimidazole] | > 3
COc1cccc(COc2cc(-c3nc4ccccc4[nH]3)[nH]n2)c1 [Example 197, 2-[5-(3-Methoxy-benzyloxy)-2H-pyrazol-3-yl]-1H-benzoimidazole] | 0.3 to 3
Cc1ccc(C(=O)COc2cc(-c3nc4ccccc4[nH]3)[nH]n2)cc1 [Example 198, 2-[5-(1H-Benzoimidazol-2-yl)-1H-pyrazol-3-yloxy]-1-p-tolyl-ethanone] | > 3
O=C(COc1cc(-c2nc3ccccc3[nH]2)[nH]n1)C(F)(F)C(F)(F)F [Example 199, 1-[5-(1H-Benzoimidazol-2-yl)-1H-pyrazol-3-yloxy]-3,3,4,4,4-pentafluoro-butan-2-one] | > 3
O=C(COc1cc(-c2nc3ccccc3[nH]2)[nH]n1)c1ccc(-c2ccccc2)cc1 [Example 200, 2-[5-(1H-Benzoimidazol-2-yl)-1H-pyrazol-3-yloxy]-1-biphenyl-4-yl-ethanone] | > 3
CCC(=O)COc1cc(-c2nc3ccccc3[nH]2)[nH]n1 [Example 201, 1-[5-(1H-Benzoimidazol-2-yl)-1H-pyrazol-3-yloxy]-butan-2-one] | > 3
CN(C)c1ccc(C(=O)COc2cc(-c3nc4ccccc4[nH]3)[nH]n2)cc1 [Example 202, 2-[5-(1H-Benzoimidazol-2-yl)-1H-pyrazol-3-yloxy]-1-(4-dimethylamino-phenyl)-ethanone] | > 3
O=C(COc1cc(-c2nc3ccccc3[nH]2)[nH]n1)c1cc(-c2ccccc2)no1 [Example 203, 2-[5-(1H-Benzoimidazol-2-yl)-1H-pyrazol-3-yloxy]-1-(3-phenyl-isoxazol-5-yl)-ethanone] | > 3
O=C(COc1cc(-c2nc3ccccc3[nH]2)[nH]n1)Nc1ccccc1 [Example 204, 2-[5-(1H-Benzoimidazol-2-yl)-1H-pyrazol-3-yloxy]-N-phenyl-acetamide] | > 3
CC(C)(C)C(=O)COc1cc(-c2nc3ccccc3[nH]2)[nH]n1 [Example 205, 1-[5-(1H-Benzoimidazol-2-yl)-1H-pyrazol-3-yloxy]-3,3-dimethyl-butan-2-one] | > 3
O=C(COc1cc(-c2nc3ccccc3[nH]2)[nH]n1)C12C[C@H]3C[C@@H](C1)C[C@@H](C2)C3 [Example 206, 1-Adamantan-1-vl-2-[5-(1H-benzoimidazol-2-yl)-1H-pyrazol-3-yloxy]-ethanone] | > 3
O=C(COc1cc(-c2nc3ccccc3[nH]2)[nH]n1)c1ccc2ccccc2c1 [Example 207, 2-[5-(1H-Benzoimidazol-2-yl)-1H-pyrazol-3-yloxy]-1-naphthalen-2-yl-ethanone] | > 3
N#Cc1ccc(C(=O)COc2cc(-c3nc4ccccc4[nH]3)[nH]n2)cc1 [Example 208, 4-{2-[5-(1H-Benzoimi-dazol-2-Yl)-1H-pyrazol-3-yloxy)acetyl}-benzonitrile] | > 3
O=C1CCc2cc(C(=O)COc3cc(-c4nc5ccccc5[nH]4)[nH]n3)ccc2N1 [Example 209, 6-{2-[5-(1H-Benzoimi-dazol-2-yl)-1H-pyrazol-3-yloxy]-acetyl}-3,4-dihydro-1H-quinolin-2-one] | > 3
O=C(COc1cc(-c2nc3ccccc3[nH]2)[nH]n1)c1ccc(OC(F)(F)F)cc1 [Example 210, 2-[5-(1H-Benzoimidazol-2-yl)-1H-pyrazol-3-yloxy]-1-(4-trifluoromethoxy-phenyl)-ethanone] | > 3
NS(=O)(=O)c1cc(C(=O)COc2cc(-c3nc4ccccc4[nH]3)[nH]n2)ccc1Cl [Example 211, 5-{2-[5-(1H-Benzoimida-zol-2-yl)-1H-pyrazol-3-yloxy]-acetyl}-2-chloro-benzenesulfonamide] | > 3
COc1ccc(C(=O)COc2cc(-c3nc4ccccc4[nH]3)[nH]n2)cc1 [Example 212, 2-[5-(1H-Benzoimidazol-2-yl)-1H-pyrazol-3-yloxy]-1-(4-methoxy-phenyl)-ethanone] | > 3
O=C(COc1cc(-c2nc3ccccc3[nH]2)[nH]n1)C1CC1 [Example 213, 2-[5-(1H-Benzoimidazol-2-yl)-1H-pyrazol-3-yloxy]-1-cyclopropyl-ethanone] | > 3
O=C(Oc1cc(-c2nc3ccccc3[nH]2)[nH]n1)c1ccncc1 [Example 214, Isonicotinic acid 5-(1H-benzoimidazol-2-yl)-1H-pyrazol-3-yl ester] | 0.3 to 3
CC(C)(C)C(=O)Oc1cc(-c2nc3ccccc3[nH]2)[nH]n1 [Example 215, 2,2-Dimethyl-propionic acid 5-(1H-benzoimidazole-2-yl)-1H-pyrazol-3-yl ester] | > 3
O=C(COCc1ccccc1)Oc1cc(-c2nc3ccccc3[nH]2)[nH]n1 [Example 216, Benzyloxy-acetic acid 5-(1H-benzoimidazol-2-yl)-1H-pyrazol-3-yl ester] | > 3
O=C(Oc1cc(-c2nc3ccccc3[nH]2)[nH]n1)c1ccccc1 [Example 217, Benzoic acid 5-(1H-benzoimidazol-2-yl)-1H-pyrazol-3-yl ester] | 0.3 to 3
COc1ccc(C(=O)Oc2cc(-c3nc4ccccc4[nH]3)[nH]n2)cc1 [Example 218, 4-Methoxy-benzoic acid 5-(1H-benzoimidazol-2-yl)-1H-pyrazol-3-yl ester] | > 3
O=C(Oc1cc(-c2nc3ccccc3[nH]2)[nH]n1)c1c(F)c(F)c(F)c(F)c1F [Example 220, 2,3,4,5,6-Pentafluoro-benzoic acid 5-(1H-benzoimidazol-2-yl)-1H-pyrazol-3-yl ester] | > 3
O=C(Oc1cc(-c2nc3ccccc3[nH]2)[nH]n1)C1CC1 [Example 221, Cyclopropanecarboxylic acid 5-(1H-benzoimidazol-2-yl)-1H-pyrazol-3-yl ester] | > 3
O=C(Oc1cc(-c2nc3ccccc3[nH]2)[nH]n1)C(F)(F)C(F)(F)C(F)(F)F [Example 222, 2,2,3,3,4,4,4-Heptafluoro-butyric acid 5-(1H-benzoimidazol-2-yl)-1H-pyrazol-3-yl ester] | > 3
O=C(Oc1cc(-c2nc3ccccc3[nH]2)[nH]n1)C1CCCC1 [Example 223, Cyclopentanecarboxylic acid 5-(1H-benzoimidazol-2-yl)-1H-pyrazol-3-yl ester] | > 3
O=C(CCc1ccccc1)Oc1cc(-c2nc3ccccc3[nH]2)[nH]n1 [Example 224, 3-Phenyl-propionic acid 5-(1H-benzoimidazol-2-yl)-1H-pyrazol-3-yl ester] | 0.3 to 3
